In general, IC50 refers to the point on the concentration scale where inhibition reaches its midpoint.

1 compound from BindingDB's records for doi:10.1016/j.bmcl.2004.12.073 (Vernalis (R&D), 2005) can be followed below.

This experiment has as its target Cyclin-A2/Cyclin-dependent kinase 2 (Homo sapiens, UniProt P24941). Nature of the experiment: CDK Inhibition Assay. The conditions noted are these: pH 7.5; 22 °C. As for the experimental part:
In vitro kinase assay using purified CDK2/Cyclin A was incubated at room temperature with substrate, and test compounds in the presence of 100 uM ATP/ [gamma-33P] ATP. Assays were performed in 96-well polypropylene plates. 33P incorporation into substrate was measured using a scintillation counter.

Take `CC(C)c1cnn2c(Nc3ccc(S(C)(=O)=O)cc3)cc(Cl)nc12` [5-chloro-N-(4-methanesulfonylphenyl)-3-(propan-2-yl)pyrazolo[1,5-a]pyrimidin-7-amine]: it took 230 nM to reach half-maximal inhibition (IC50). In other words, the sub-micromolar range.
